Assay results published in PubChem BioAssay AID179 (DTP/NCI, 2004).
Several values for one entry are separate records, joined by “and”; a condition that tells them apart may be missing. Equal values may be shown once. Activity calls are given as the source filed them.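 Rule for the calls: active = compounds giving half or more protection of infected cells from virus-caused growth loss, again on retest; inactive = the rest.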 Where a SMILES comes first, the peptide text is derived from it.

System: CEM cells HIV-1 protection, formazan growth assay
Test: NCI AIDS Antiviral Assay
Details: for IC50: measured here: growth of uninfected CEM cells
Outline: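 Five concentrations of each compound were applied to infected and uninfected human CEM cells. Protection from HIV-1 was judged from growth measured with a soluble formazan assay.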

Compound | outcome | EC50 [µM] | IC50
CN1C(=O)CC(=O)N(c2ccccc2)c2cc(Cl)ccc21 | inactive | – | –
O=C(OCc1ccccc1)N1CC[C@@H](O)[C@@H](CNC23CC4CC(CC(C4)C2)C3)C1 | – | > 631 | 23.4 µM
O=C1C(CN2CCCC2)CCC1CN1CCCC1 (configuration not stated) | inactive | – | –
Nc1ccc(C(=O)NN2C(=O)C(Cl)C2c2ccc(O)cc2)cc1 (configuration not stated) | – | > 200 | 9.12 µM
CC(=O)SCC1CC[C@]2(C)C3CC[C@]4(C)C(C(C)CCC(=O)O)CCC4[C@@H]3CC[C@@H]2C1 (some centres not stated) | – | > 5.89 | > 5.89 µM
CCOC(=O)Nc1[nH]c(C)c(Cc2ccccc2)c1C#N | – | > 200 | 12.3 µM
COc1cc2c3c(c1OC)C(=O)C(=O)C1=C3N(CCC1)CC2 | inactive | – | –
COc1cc2c(cc1OC)C(C(CO)CO)N(CC(O)CCl)CC2 (configuration not stated) | – | > 692 | > 692 µM
O=C(C/C(=N/O)C(F)(F)F)c1cccs1 | – | > 200 | > 200 µM
Nc1nc(N)c2ncn(CCOC(c3ccccc3)P(=O)(O)O)c2n1 (configuration not stated) | – | > 200 | > 200 µM
CNC(=O)Nc1ccc(Cl)cn1 | – | > 200 | > 200 µM
Cc1cn(CCOCCOC(=O)NC(CCCNC(N)=O)C(=O)O)c(=O)[nH]c1=O (configuration not stated) | – | > 200 | > 200 µM
O=C1OCOC2(CCCC2)C1c1ccccc1 (configuration not stated) | – | > 200 | 120 µM
COC(=O)C1(Cc2ccccc2)Cc2ccccc2C1 | – | > 200 | 35.5 µM
O=C(Cc1ccccc1)ONC(CCCCNC(=O)OCc1ccccc1)C(=O)Nc1ccc(Cc2ccc(NC(=O)C(CCCCNC(=O)OCc3ccccc3)NC(=O)OCc3ccccc3)cc2)cc1 (configuration not stated) | – | > 100 | > 100 µM
CCOC(=O)N/N=C/C1=NN(C(=O)OCC)S(=O)C1C (configuration not stated) | – | > 200 | > 200 µM
CC1CC2C3CC(F)C4=CC(=O)C=CC4(C)C3(F)C(O)CC2(C)C1(O)C(=O)COC(=O)C(C)(C)C (configuration not stated) | inactive | – | –
COc1ccc(Cl)[c]([Bi]([c]2cc(OC)ccc2Cl)[c]2cc(OC)ccc2Cl)c1 | – | > 39.8 | > 39.8 µM
CC1=C(C)CC2(SC1)C(=O)c1ccccc1C2=O | inactive | – | –
O=C(CCC(C(=O)OCc1ccccc1)C(=O)OCc1ccccc1)Nc1ccc(OCc2ccccc2)cc1 | – | > 200 | 107 µM
O=C(Cn1c(=O)ccc2ccccc21)Cn1c(=O)ccc2ccccc21 | – | > 200 | > 200 µM
Cc1cn(C2CC(CO)N(CCO)O2)c(=O)[nH]c1=O (configuration not stated) | – | > 200 | > 200 µM

Compound | outcome | EC50 [µM] | IC50
CCOC(=O)NC(=O)c1cn(CCNCCO)c(=O)[nH]c1=O | inactive | – | –
O=C(OCCN1CCCC1)c1cc2ccccc2n1Cc1ccccc1 | – | > 200 | 36.3 µM
Cc1cc(-n2nnnc2-c2ccc([N+](=O)[O-])cc2)no1 | – | > 5.01 | 4.37 µM
O=C1OC2(OC2c2ccc(Cl)cc2)c2ccccc21 (configuration not stated) | – | > 69.2 | > 69.2 µM
Cc1cccc(/C=N\NC(=S)N2CCCCC2)n1 | – | > 200 | 0.0631 µM
Cc1nc2c(sc3nc4c(cc32)CCC4)c(=O)o1 | – | > 100 | 53.7 µM
CC(=O)OC1N(C(C)=O)C(SC23CC4CC(CC(C4)C2)C3)C(C)=CC1(C)OC(C)=O (configuration not stated) | – | > 200 | 126 µM
CC(=O)c1ccc(NC(=O)CSc2nc(C)nc3c2sc(=S)n3-c2ccccc2)cc1 | – | > 200 | > 200 µM
Cc1cc(NC2=NCCO2)c2c(c1C)CCCC2 | – | > 200 | 29.5 µM
COc1ccc(C2C(C#N)=C(S)N(C3OC(COC(C)=O)C(OC(C)=O)C(OC(C)=O)C3OC(C)=O)C(C)=C2C(C)=O)cc1 (configuration not stated) | – | > 200 | 53.7 µM
S=C(Nc1ccccc1)Nc1ccccc1S | – | > 200 | 112 µM
CC1=C(C(N)=O)C(c2ccncc2)C(C#N)=C2SCC(=O)N12 (configuration not stated) | – | > 200 | > 200 µM
O=[N+]([O-])c1cc(C(F)(F)F)ccc1SSc1ccc(C(F)(F)F)cc1[N+](=O)[O-] | – | > 200 | 24.5 µM and 13.2 µM
CCc1c(Cc2ccccc2)n(COCCC[Se]c2ccccc2)c(=O)[nH]c1=O | – | 2.82 | 18.2 µM
CC1=CN(c2ccccc2)S2=C1c1sc3c(c1N2c1ccc(Br)cc1)CCCC3 (configuration not stated) | – | > 200 | > 200 µM
CCOC(=O)C1=C(C)Nc2ccccc2S1 | inactive | – | –
CC1=NN2C(c3ccc(C)cc3)=CSC2=NC(C)(C)C1 | – | > 174 | 141 µM
O=C(NCCCCNCCCNC(=O)c1ccc([N+](=O)[O-])cc1)c1ccc([N+](=O)[O-])cc1 | – | > 200 | 112 µM
CN1C(=O)/C(=N\n2c(-c3ccccc3)nc3ccccc3c2=O)c2cc(Br)ccc21 | – | > 200 | > 200 µM
CC1(C)C[C@H](O)[C@H](O)[C@]23C(=O)O[C@H](O)[C@H]2C(C=O)=CC[C@@H]13 | – | > 200 | > 200 µM
O=S(=O)(N/N=C/c1c(Cl)cccc1Cl)c1ccccc1 | inactive | – | –
O=C(c1ccccc1)C(Nc1nc2nc(-c3ccccc3)c(-c3ccccc3)n2[nH]1)c1ccccc1 (configuration not stated) | – | > 200 | 27.5 µM

Compound | outcome | EC50 [µM] | IC50
CC(C)CC(N)C(=O)NC(Cc1cnc[nH]1)C(=O)NC(CC(N)=O)C(=O)NC(C(=O)NC(CO)C(=O)NC(Cc1ccc(O)cc1)C(=O)NC(CO)C(=O)NC(C)C(=O)NC(CCCCN)C(=O)NC(CC(=O)O)C(=O)NC(CC(C)C)C(=O)O)C(C)O (configuration not stated) (H-LHNTSYSAKDL-OH; configuration not given here) | – | > 50.1 | > 50.1 µM
CCCN1CCC(=O)N(CCC(F)(F)C(F)(F)C(F)(F)C(F)(F)C(F)(F)C(F)(F)F)C1=S | – | > 50.1 | > 50.1 µM
CCOC(=O)CC1(c2cccc3ccccc23)OC(=O)c2ccccc21 (configuration not stated) | inactive | – | –
COc1cc(C2c3cc4c(cc3OC(NNS(=O)(=O)c3ccc(C)cc3)C2C)OCO4)cc(OC)c1O (configuration not stated) | inactive | – | –
O=C1/C(=C/c2ccccc2)CCc2ccc([N+](=O)[O-])cc21 | – | > 200 | 11.2 µM
N#Cc1c(O)c(C=O)c(=O)n2c1[nH]c1ccccc12 | – | > 200 | 170 µM
[B-]1n2ccc[n+]2[B-]n2ccc[n+]21 | – | > 200 | > 200 µM
CC[C@H]1CN2CCc3c([nH]c4ccccc34)C2C[C@@H]1CCO (some centres not stated) | – | > 120 | > 120 µM
CC1=NC(=Cc2cccc(Cl)c2)C(=O)N1n1c(-c2ccccc2)nc2ccccc2c1=O | – | > 200 | 36.3 µM
O=C(/C=C/c1ccsc1)c1ccco1 | – | > 200 | 11 µM
O=C(O)c1cc(NCc2cc(O)ccc2O)ccc1O | – | > 25.1 | 5.13 µM
CCc1cccc(C(C)C)c1NC(=O)C(=O)C(C(=O)C(=O)OC)c1nc2ccccc2[nH]c1=O (configuration not stated) | – | > 537 | 269 µM
CCOc1ccccc1N1C(=O)C(=O)C(c2nc3ccccc3o2)C(=O)C1=O | inactive | – | –
O=C(Oc1ccccc1C(=O)O)c1ccccc1O | – | > 200 | > 200 µM
CCC(C)C1C(=O)ON=C1N (configuration not stated) | – | > 200 | > 200 µM
Cc1cc(N(CCC#N)CCC#N)ccc1N=Nc1cccc(C(=O)O)c1 | – | > 72.4 | 57.5 µM
C=CC(C)(C)c1[nH]cnc1/C=C1\NC(=O)[C@H](C(C)C)NC1=O | – | > 200 | 2.4 µM
O=C1NC2CSC(CCCCC(=O)ON3C(=O)CCC3=O)C2N1 (configuration not stated) | – | > 741 | 123 µM
COc1ccc(Cc2c(-c3ccc(C)cc3)n[nH]c(=O)c2C2C(=O)N(c3ccccc3)N=C2c2ccccc2)cc1 (configuration not stated) | – | > 200 | 38 µM
CC1=C[C@H]2C[C@@]3(C)O[C@@H]([C@]4(C)CC[C@H]([C@@H](C)C(=O)O)OO4)CC3C(C)(C)[C@H]2CC1 (some centres not stated) | inactive | – | –
CCOc1ccc(NC(=O)CC2SC(=Nc3ccc(C)cc3)NC2=O)cc1 (configuration not stated) | – | > 67.6 | > 67.6 µM
CCOP(=O)(OCC)c1cc2cc(O)ccc2oc1=O | – | > 200 | > 200 µM

Compound | outcome | EC50 [µM] | IC50
C[n+]1[se]c2ccccc2c1Cl | – | > 186 | 7.24 µM
O=[N+]([O-])c1nccn1CCC[n+]1cccc2ccccc21 | – | > 200 | > 200 µM
CCn1ncc2c1nc(-c1ccccc1)c[n+]2[O-] | – | > 200 | > 200 µM
C[C@@H]1c2ccc3c(c2C2(O)C[C@H]4CCC1N2C4)CC1[C@H]3CC(=O)C2C[C@@H](O)CC[C@@]21C (some centres not stated) | – | > 155 | > 155 µM
CC(=O)O[C@]1(C)OC(=O)[C@@H](C)N1[N+](=O)[O-] | inactive | – | –
C=CC[C@H](C)CCC(=O)N1[C@H]2CC3CC[C@@]2(CS1(=O)=O)C3(C)C | – | > 200 | 75.9 µM
OC1CCC(O)[C@H]2[C@@H]1[C@@H]1S[C@H]2c2ccccc21 (some centres not stated) | – | > 200 | > 200 µM
O=c1ccc(=O)n(-c2ccccc2)[nH]1 | – | > 955 | > 955 µM
O=C(O)CNCc1c2ccccc2nc2ccccc12 | inactive | – | –
CC(c1ccc(Br)cc1)C(C(=O)O)C(=O)O (configuration not stated) | inactive | – | –
CC(C)(C)OC(=O)NC1CCCC1C(=O)C1=CCCC1 (configuration not stated) | – | > 200 | 105 µM
O=C(O)c1cccc(S(=O)(=O)NN2C(=O)CSC2c2c(O)ccc3ccccc23)c1 (configuration not stated) | – | > 200 | 29.5 µM
Cc1cc(Cl)ccc1NC(=O)CC1SC(=Nc2ccccc2Cl)NC1=O (configuration not stated) | – | > 89.1 | 43.7 µM
Cc1ccc(/C(O)=C/c2nc3ccccc3oc2=O)cc1 | – | > 200 | 55 µM
COc1ccc(-c2c3c([nH]c(=S)c2C#N)CC(C)(C)CC3=O)cc1 | inactive | – | –
Cc1ccc(C)n1CCN1CCNCC1 | – | > 200 | 162 µM
COc1cc(N=Nc2ccccc2)cc(/C=N/NC(N)=S)c1[O-].[CH2-]/[N+](=C\c1cc(N=Nc2ccccc2)cc(OC)c1[O-])NC(N)=S.[O]=[Mo+2]=[O].[O]=[Mo]=[O] | – | > 38.9 | 5.25 µM
CCc1nc2c(O)ccc(O)c2nc1C | – | > 178 | 10.5 µM
O=c1[nH]n(Cc2ccccc2Cl)c2ccc([N+](=O)[O-])cc12 | – | > 200 | 69.2 µM
O=C1OCC(Cc2ccc3c(c2)OCO3)[C@H]1Cc1cccc(O)c1 (some centres not stated) | – | > 200 | 79.4 µM
S=CN1CCN(C=S)CC1 | inactive | – | –
